In the supplement of paper PMC10307832:

Columns and labels:
Assay in all cases: relative viability (nuclei count vs DMSO), 5 days (fraction); higher = more cells survive
[1] = compound: CN[C@@H]1C[C@H]2O[C@@](C)([C@@H]1OC)n1c3ccccc3c3c4c(c5c6ccccc6n2c5c31)C(=O)NC4 [Staurosporine] + Cc1nc(Nc2ncc(C(=O)Nc3c(C)cccc3Cl)s2)cc(N2CCN(CCO)CC2)n1 [Dasatinib] (partner 0.075 µM)
How it was run: (§1)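 Lung cancer cell lines in 1536-well plates were dosed by pin tool the day after seeding, either with one drug alone or with a fixed anchor-drug dose plus five library-drug doses (not always all listed) in √10 steps. After 5 days, cells were fixed and their nuclei stained in one step (final 0.05% Triton X-100, 1% formaldehyde, 1 ug/ml Hoechst), then counted on 4× images. Relative viability is the nuclei count in treated wells divided by that in vehicle wells. Values are medians of duplicate plates.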

[2] = compound: O=c1[nH]cc(F)c(=O)[nH]1 [5-Fluorouracil] + CC(C)C[C@H](NC(=O)[C@H](Cc1ccccc1)NC(=O)c1cnccn1)B(O)O [Bortezomib] (partner 0.002 µM)
How it was run: as §1

Sulindac + Phenformin = compound: CC1=C(CC(=O)O)c2cc(F)ccc2/C1=C\c1ccc([S+](C)[O-])cc1 [Sulindac] + N=C(N)NC(=N)NCCc1ccccc1 [Phenformin] (partner 250 µM)
How it was run: as §1

Sulindac + Crizotinib = compound: CC1=C(CC(=O)O)c2cc(F)ccc2/C1=C\c1ccc([S+](C)[O-])cc1 [Sulindac] + C[C@@H](Oc1cc(-c2cnn(C3CCNCC3)c2)cnc1N)c1c(Cl)ccc(F)c1Cl [Crizotinib] (partner 1 µM)
How it was run: as §1

Cell Line | relative viability ([1]; first compound 0.005 µM) | relative viability ([1]; first compound 0.01581 µM) | relative viability ([1]; first compound 0.05 µM) | relative viability ([1]; first compound 0.1581 µM) | relative viability ([1]; first compound 0.5 µM) | relative viability ([2]; first compound 0.02 µM) | relative viability ([2]; first compound 0.2 µM) | relative viability ([2]; first compound 0.6325 µM) | relative viability ([2]; first compound 2 µM) | relative viability (Sulindac + Phenformin; first compound 0.08 µM) | relative viability (Sulindac + Phenformin; first compound 0.253 µM) | relative viability (Sulindac + Phenformin; first compound 2.53 µM) | relative viability (Sulindac + Phenformin; first compound 8 µM) | relative viability (Sulindac + Crizotinib; first compound 0.08 µM) | relative viability (Sulindac + Crizotinib; first compound 0.253 µM) | relative viability (Sulindac + Crizotinib; first compound 0.8 µM) | relative viability (Sulindac + Crizotinib; first compound 2.53 µM) | relative viability (Sulindac + Crizotinib; first compound 8 µM) | relative viability (Sulindac + Phenformin; first compound 0.8 µM)
NCI-H1355 | 0.516 | 0.166 | 0.202 | 0.164 | 0.152 | 1.17 | 1.1 | 0.404 | 0.3 | 0.451 | 0.506 | 0.44 | 0.46 | 1.27 | 1.15 | 0.954 | 1.07 | 1.11 | 
NCI-H1437 | 0.391 | 0.208 | 0.285 | 0.173 | 0.134 |  | 0.218 | 0.144 | 0.128 | 0.251 | 0.321 | 0.301 | 0.373 | 1.15 | 0.992 | 0.58 | 0.978 | 1.04 | 0.197
NCI-H1563 | 0.43 | 0.434 | 0.411 | 0.247 | 0.433 | 0.895 | 0.859 | 0.841 | 0.718 | 0.647 | 0.626 | 0.694 | 0.677 | 0.84 | 0.92 | 0.806 | 0.785 | 0.888 | 0.608
NCI-H1650 | 0.24 | 0.225 | 0.166 | 0.127 | 0.119 | 0.195 | 0.187 | 0.185 | 0.174 | 0.372 | 0.481 | 0.41 | 0.53 | 1.17 | 0.878 | 0.912 | 0.979 | 1.02 | 
NCI-H1651 | 0.335 | 0.211 | 0.239 | 0.107 | 0.0833 | 1.05 | 0.873 | 0.464 | 0.406 | 0.399 | 0.342 | 0.307 | 0.362 | 0.969 | 0.86 |  | 0.93 | 0.929 | 
NCI-H1666 | 0.602 | 0.419 | 0.484 | 0.261 | 0.196 | 0.878 | 0.475 | 0.39 | 0.39 | 0.564 | 0.629 | 0.529 | 0.631 |  | 1.03 | 0.942 | 0.949 | 1.17 | 0.561
NCI-H1734 | 0.309 |  | 0.136 | 0.1 | 0.116 | 0.853 | 1.06 | 0.723 | 0.494 | 0.402 | 0.337 | 0.396 | 0.496 | 0.658 | 0.754 | 0.583 | 0.703 | 0.787 | 
NCI-H1755 | 0.229 | 0.206 | 0.149 |  | 0.169 | 0.975 | 0.442 | 0.397 | 0.311 | 0.645 | 0.653 | 0.643 | 0.648 | 1 | 0.886 | 0.743 | 0.981 | 0.935 | 0.525
NCI-H1792 | 0.897 | 0.639 | 0.451 | 0.359 | 0.289 | 1.03 | 0.84 | 0.272 | 0.185 | 0.243 | 0.441 | 0.353 | 0.255 | 1 | 1 |  | 0.944 | 1.16 | 
NCI-H1915 | 0.212 | 0.0927 | 0.204 | 0.0847 | 0.0869 | 0.717 | 1 | 0.915 | 0.765 | 0.445 | 0.389 | 0.378 | 0.382 | 1.25 | 1.02 | 0.676 | 0.903 | 0.947 | 
NCI-H1975 | 0.29 | 0.177 | 0.152 | 0.1 | 0.0812 | 0.472 | 0.3 | 0.214 | 0.17 | 0.27 | 0.404 | 0.403 | 0.457 | 1.06 | 1.07 |  | 1.01 | 1.14 | 0.365
NCI-H1993 | 0.646 | 0.454 | 0.54 | 0.488 | 0.509 | 1.36 | 0.919 | 0.658 | 0.559 | 0.431 | 0.479 | 0.461 | 0.531 | 0.848 | 0.862 | 0.747 | 0.86 | 0.83 | 0.51
NCI-H2009 | 0.197 | 0.158 | 0.152 | 0.153 | 0.116 | 1.04 | 1.01 | 0.722 | 0.463 | 0.549 | 0.521 | 0.53 | 0.538 | 1.15 | 1.05 | 1.05 | 0.985 | 1.24 | 0.45
NCI-H2023 | 0.365 | 0.198 | 0.126 | 0.0785 | 0.0455 | 0.803 | 0.214 | 0.11 | 0.0857 | 0.423 | 0.498 | 0.419 | 0.571 | 0.686 | 0.429 | 0.53 | 0.718 | 0.685 | 0.325
NCI-H2085 | 0.244 | 0.257 | 0.271 | 0.235 | 0.242 | 1.09 | 1.13 | 0.995 | 0.738 | 0.767 | 0.912 | 0.739 | 0.751 | 0.735 | 0.944 | 0.779 | 0.772 | 0.953 | 0.593
NCI-H2087 | 0.701 | 0.431 | 0.311 | 0.0727 | 0.0691 | 0.884 | 0.757 | 0.599 | 0.497 | 0.58 | 0.529 | 0.431 | 0.51 | 1.08 | 0.882 | 0.739 | 1.03 | 0.85 | 
NCI-H2126 | 0.501 | 0.275 | 0.301 | 0.257 | 0.222 | 0.948 | 0.583 | 0.337 | 0.318 | 0.513 | 0.541 | 0.46 | 0.593 | 1.13 | 1.01 | 1.03 | 1.04 | 1.11 | 0.539
